According to ChEMBL document CHEMBL1148733, “Novel N7- and N1-substituted cGMP derivatives are potent activators of cyclic nucleotide-gated channels” (J Med Chem, 2007):

Tests used:
HEK293 = settings: Homo sapiens
Description: Activation of olfactory CNG A2A41b channel expressed in HEK293 cells assessed as effect on half maximal current

Oocyte = experiment: Activation of retinal rod […] CNG A1B1 channel expressed in Xenopus oocytes assessed as effect on half maximal current; format: cell-based; settings: Homo sapiens

| SMILES | K1/2 (HEK293) [µM] | K1/2 (Oocyte) [µM] |
| --- | --- | --- |
| CS(=O)(=O)CCn1c(=S)n([C@@H]2O[C@@H]3COP(=O)(O)O[C@H]3[C@H]2O)c2nc(N)[nH]c(=O)c21 | 0.11 | – |
| Nc1nc2c(nc(Sc3ccc(Cl)cc3)n2[C@@H]2O[C@@H]3COP(=O)(O)O[C@H]3[C@H]2O)c(=O)n1CCS(=O)(=O)c1ccccc1 | 0.38 | 12 |
| CCCC(=O)O[C@@H]1[C@@H]2OP(=O)(O)OC[C@H]2O[C@H]1n1cnc2c(=O)[nH]c(N)nc21 | 88 | – |
| Nc1nc2c(c(=O)[nH]1)[n+]1c(n2[C@@H]2O[C@@H]3COP(=O)(O)O[C@H]3[C@H]2O)SCCC1 | 10 | – |
| Nc1nc2c(c(=O)[nH]1)n(CCS(=O)(=O)c1ccccc1)c(=S)n2[C@@H]1O[C@@H]2COP(=O)(O)O[C@H]2[C@H]1O | 0.082 | 4.1 |
| CO[C@@H]1[C@@H]2OP(=O)(O)OC[C@H]2O[C@H]1n1c(Sc2ccc(Cl)cc2)nc2c(N)ncnc21 | 22 | – |
| Nc1nc2c([nH]c(=S)n2[C@@H]2O[C@@H]3COP(=O)(O)O[C@H]3[C@H]2O)c(=O)[nH]1 | 0.18 | 14 |
| CS(=O)(=O)CCSc1nc2c(=O)[nH]c(N)nc2n1[C@@H]1O[C@@H]2COP(=O)(O)O[C@H]2[C@H]1O | 0.37 | – |
| CO[C@@H]1[C@@H]2OP(=O)(O)OC[C@H]2O[C@H]1n1cnc2c(=O)[nH]c(N)nc21 | 35 | – |
| CO[C@@H]1[C@@H]2OP(=O)(O)OC[C@H]2O[C@H]1n1cnc2c(=O)n(C)c(N)nc21 | 290 | – |
| Nc1ncnc2c1nc(Sc1ccc(Cl)cc1)n2[C@@H]1O[C@@H]2COP(=O)(O)O[C@H]2[C@H]1O | 0.55 | – |
| Nc1nc2c(ncn2[C@@H]2O[C@@H]3COP(=O)(O)O[C@H]3[C@H]2O)c(=O)[nH]1 | 1.1 | 41 |
| Nc1nc2c(nc(Sc3ccc(Cl)cc3)n2[C@@H]2O[C@@H]3COP(=O)(O)O[C@H]3[C@H]2O)c(=O)[nH]1 | 0.073 | 1 |
| Nc1nc2c(nc(SCCS(=O)(=O)c3ccccc3)n2[C@@H]2O[C@@H]3COP(=O)(O)O[C@H]3[C@H]2O)c(=O)[nH]1 | 0.21 | – |
| CCCC(=O)Nc1nc2c(ncn2[C@@H]2O[C@@H]3COP(=O)(O)O[C@H]3[C@H]2O)c(=O)[nH]1 | 22 | – |
